Experimental data published in patent publication EP4755892A1, “KINESIN KIF18A INHIBITOR AND USE THEREOF” (Shanghai Apeiron Therapeutics Company Limited, priority 2023, dated 2025).
Like-named read-outs stand apart in the source and are kept apart here.

Tests used:
OVCAR3 cells = test: Cell Proliferation Activity Test (CyQUANT Direct), OVCAR3; assay type: cell-based; details: compound 0-10 µM, 3 days, 0.2% DMSO, CyQUANT fluorescence, read-out: OVCAR-3 _IC50_nM
Method: Assay 2: Cell Proliferation Activity Test
Materials and Cells: OVCAR3 cells were purchased from Nanjing Cobioer Biosciences Co., Ltd. RPMI-1640 medium, fetal bovine serum, and the CyQUANT Direct Cell Proliferation Assay kit were purchased from Thermo Fisher Scientific, USA; 96-well cell culture plates were sourced from Coming, USA.
Cell Culture: OVCAR3 cells were cultured with RPMI-1640 medium containing 10% fetal bovine serum and incubated in a 5% CO2 incubator at 37°C. Only cells in the logarithmic growth phase could be used for the test.
Cell Proliferation Activity Test:
OVCAR3 cells were inoculated into a 96-well cell culture plate at 90 µL per well and incubated overnight in a 5% CO2 incubator at 37°C. The compound powder was dissolved in DMSO to prepare a stock solution of 10 mM. Then gradient dilution was performed for the compounds in the microplate to achieve a final concentration of 0-10 µM. 10 µL of cell culture medium containing compounds was added to each well to make the final DMSO content 0.2%. The cell plates were incubated in a 5% CO2 incubator at 37°C for 3 days. 100 µL of CyQUANT detection reagent was added to each well, reacted at 37°C for 60 min, and fluorescence detection was performed using the PerkinElmer Envision.

[1] = target: T1, Human KIF18A (amino acid sequence 1-417) (Homo sapiens, UniProt Q8NI77); test: Enzymatic Activity Test (ADP-Glo, microtubule-stimulated KIF18A ATPase); assay type: biochemical; details: 60 µg/mL microtubules, 25 µM ATP, 2.5 nM KIF18A protein, 120 min at ambient temperature, chemiluminescence; read-out: KIF 18A IC50
T1 construct: purchased Viva Biotech (Shanghai) Ltd
T1 sequence (Q8NI77 1-417): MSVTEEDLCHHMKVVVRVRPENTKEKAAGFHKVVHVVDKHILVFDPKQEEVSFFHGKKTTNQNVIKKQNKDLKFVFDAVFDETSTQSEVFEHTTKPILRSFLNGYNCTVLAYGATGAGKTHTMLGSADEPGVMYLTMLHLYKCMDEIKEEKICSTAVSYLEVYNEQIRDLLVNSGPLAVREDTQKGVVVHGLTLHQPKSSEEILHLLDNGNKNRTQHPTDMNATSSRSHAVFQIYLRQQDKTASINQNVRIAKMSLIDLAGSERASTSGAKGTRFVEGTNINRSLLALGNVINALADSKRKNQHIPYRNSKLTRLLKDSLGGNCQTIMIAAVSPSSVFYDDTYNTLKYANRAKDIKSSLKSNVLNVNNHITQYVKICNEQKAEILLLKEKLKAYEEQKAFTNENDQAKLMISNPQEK
Method: Assay 1: Enzymatic Activity Test
Materials: Human KIF18A (amino acid sequence 1-417) was purchased from Viva Biotech (Shanghai) Ltd.; the ADP-Glo™ protein kinase kit was acquired from Promega, USA; tubulin was sourced from Cytoskeleton, USA; and the 384-well assay plate and Envision multifunctional microplate reader were obtained from PerkinElmer, USA.
Enzymatic Activity Test: The compound powder was dissolved in DMSO to prepare a stock solution of 10 mM. Then gradient dilution was performed for the compounds in the microplate to achieve a final concentration of 0-10 µM. Then, 2.5 µL each of tubulin, compound, ATP, and KIF18A protein were added to the microplate in sequence for reaction at ambient temperature for 120 min. The final concentrations in the enzyme reaction were 60 µg/mL for microtubules, 25 µM for ATP, and 2.5 nM for KIF18A protein. After the enzyme reaction, 10 µL of ADP-GLO reaction reagent was added to each well and incubated at room temperature for 30 min. After that, 20 µL of detection reagent was added to each well and incubated at room temperature for 30 min in the dark. Finally, chemiluminescence detection was performed using the PerkinElmer Envision.

HT29 cells = test: CyQuant Cell Proliferation Activity Test, HT29; assay type: cell-based; details: HT29 cells 2000 per well, initial concentration 3000 nM, 3-fold dilution, 3 days, 0.2% DMSO, read-out: HT29_IC50 _nM
Method: Assay 3: CyQuant Cell Proliferation Activity Test
Materials and Cells: HT29 cells were purchased from Nanjing Cobioer Biosciences Co., Ltd.; RPMI-1640 medium, fetal bovine serum, Trypsin-EDTA (0.25%), 96-well plates, and CyQuant reagents were purchased from ThermoFisher (USA); DMSO was purchased from SIGMA (USA).
Cell Culture: HT29 cells were cultured with RPMI-1640 containing 10% fetal bovine serum under the condition of 37°C and 5% CO2. Only cells in the logarithmic growth phase could be used for the test.
Cell Proliferation Activity Test: CyQuant reagent was used to detect the proliferation inhibitory activity of compounds on HT29 cells. The cell density was adjusted, and 100 µL per well was inoculated into a 96-well plate (HT29 at 2000 cells per well), then incubated overnight at 37°C and 5% CO2. Add compounds of various target concentrations (initial concentration of 3000 nM, 3-fold dilution, 9 concentration gradients), and make the DMSO content 0.2%. The cell plate was incubated at 37°C in 5% CO2 for 3 days. CyQuant reagent was added and incubated for 1 h. The plates were read by Envision, and IC50 was calculated using XLFIT.

IC50 (OVCAR3 cells; Homo sapiens, OVCAR-3, 72 h) [nM] | IC50 [1] [nM] | IC50 (HT29 cells; Homo sapiens, HT-29, 72 h) [nM] | IC50 (OVCAR3 cells) [nM] | IC50 (HT29 cells) [nM] | Structure (SMILES)
1480 | 265 | > 3000 | – | – | Cc1cc2nc(n1)N1CCCC(C1)C(=O)NCC1CCN(CC1)c1cc(NS(=O)(=O)CCO)ccc1C(=O)N2 (stereo not drawn) [Example 27, N-(2^6-methyl-4,9-dioxo-3,8-diaza-2(2,4)-pyrimidin-1(1,3),6(1,4)-dipiperidin-5(1,2) -benzeneheterocyclononane-5^4-yl)-2-hydroxyethane-1-sulfonamide]
– | 26 | – | 1610 | 1320 | Cc1cc2nc(n1)N1CCCC(CCCC3CCN(CC3)c3cc(NS(=O)(=O)CCO)ccc3C(=O)N2)C1 (stereo not drawn) [Example 3A, 2-Hydroxy-N-((1^3R)-2^6-methyl-4-oxo-3-aza-2(2,4)-pyrimidin-1(1,3),6(1,4)-dipiperidin-5(1,2)-benzeneheterocyclononane-5^4-yl)ethane-1-sulfonamide]
77 | 23 | 136 | – | – | O=C1Nc2cccc(c2)S(=O)(=O)NCCCCCC2CCN(CC2)c2cc(NS(=O)(=O)CCO)ccc21 [Example 13, N-(6,6-dioxo-3-oxo-6-thia-4,7-diaza-1(1,4)-piperidin-2(1,2),5(1,3)-diphenylheterocyclododecane-2^5-yl)-2-hydroxy-1-ethanesulfonamide]
– | 102 | – | 52 | 47 | Cc1cc2nc(n1)N1CCC(F)(F)C(CCCC3CCN(CC3)c3cc(NS(=O)(=O)CCO)ccc3C(=O)N2)C1 (stereo not drawn) [Example 23, N-(1^4,1^4-difluoro-2^6-methyl-4-oxo-3-aza-2(2,4)-pyrimidin-1(1,3),6(1,4)-dipiperidin-5(1,2)-benzeneheterocyclononane-5^4-yl)-2-hydroxyethane-1-sulfonamide]
136 | 200 | 172 | – | – | Cc1cc2nc(n1)N1CCCC(C=CCC3CCCN(C3)c3cc(NS(=O)(=O)CCO)ccc3C(=O)N2)C1 (stereo not drawn) [Example 10, 2-Hydroxy-N-(2^6-methyl-4-oxo-3-aza-2(2,4)-pyrimidin-1,6(1,3)-dipiperidin-5(1,2) -benzeneheterocyclononane-8-en-5^4-yl)ethane-1-sulfonamide]
74 | 8 | 178 | – | – | Cc1cc2nc(n1)N1CCCC(C=CCC3CCN(CC3)c3cc(NS(=O)(=O)CCO)cnc3C(=O)N2)C1 (stereo not drawn) [Example 2, (Z)-2-Hydroxy-N-(2^6-methyl-4-oxo-3-aza-2(2,4)-pyrimidin-5(2,3)-pyridin-1(1,3),6 (1,4)-dipiperidinylcyclononane-8-en-55-yl)ethane-1-sulfonamide]
8.5 | 13 | 10.9 | – | – | Cc1cc2nc(n1)N1CCOC(C=CCC3CCN(CC3)c3cc(NS(=O)(=O)CCO)ccc3C(=O)N2)C1 (stereo not drawn) [Example 25, 2-Hydroxy-N-((1^2S)-2^6-methyl-4-oxo-3-aza-1(4,2)-morpholin-2(2,4)-pyrimidin-6(1,4)-piperidin-5(1,2)-benzeneheterocyclonon-8-en-5^4-yl)ethane-1-sulfonamide]
– | 98 | – | 76 | 68 | Cc1cc2nc(n1)N1CCCC(CCCC3CCN(CC3)c3cc(NS(=O)(=O)CCO)ccc3C(=O)N2)C1 (stereo not drawn) [Example 3, 2-Hydroxy-N-(2^6-methyl-4-oxo-3-aza-2(2,4)-pyrimidin-1(1,3),6(1,4)-dipiperidin-5 (1,2)-benzeneheterocyclononane-5^4-yl)ethane-1-sulfonamide]
122 | 38 | 132 | – | – | Cc1cc2nc(n1)N1CCCC(CCC3CCN(CC3)c3cc(NS(=O)(=O)CCO)ccc3C(=O)N2)C1 (stereo not drawn) [Example 5, 2-Hydroxy-N-(1^1-methyl-7-oxo-8-aza-1(2,4)-pyrimidin-2(1,3),5(4,1)-dipiperidin-6 (1,2)-benzeneheterocyclooct-6^5-yl)ethane-1-sulfonamide]
– | 67 | – | 36 | 43 | Cc1cc2nc(n1)N1CCCC(CCCC3CCN(CC3)c3cc(NS(=O)(=O)CCO)ccc3C(=O)N2)C1 (stereo not drawn) [Example 3B, 2-Hydroxy-N-((1^3S)-2^6-methyl-4-oxo-3-aza-2(2,4)-pyrimidin-1(1,3),6(1,4)-dipiperidin-5(1,2)-benzeneheterocyclononane-5^4-yl)ethane-1-sulfonamide]
– | 71.5 | – | 28 | 32 | Cc1cc2nc(n1)N1CCC(F)(F)C(CCCC3CCN(CC3)c3cc(NS(=O)(=O)CCO)ccc3C(=O)N2)C1 (stereo not drawn) [Example 23B, N-((1^3R)-1^4,1^4-difluoro-2^6-methyl-4-oxo-3-aza-2(2,4)-pyrimidin-1(1,3),6(1,4)-dipiperidin-5(1,2)-benzeneheterocyclononane-5^4-yl)-2-hydroxyethane-1-sulfonamide]
85 | 21 | 152 | – | – | O=C1Nc2cccc(c2)S(=O)(=O)NCCCCC2CCN(CC2)c2cc(NS(=O)(=O)CCO)ccc21 [Example 14, N-(6,6-dioxo-3-oxo-6-thia-1(1,4)-piperidin-2(1,2),5(1,3)-diphenylheterocycloundecane-2^5-yl)-2-hydroxy-1-ethanesulfonamide]
1660 | 736 | > 3000 | – | – | Cc1cc2nc(n1)N1CCCC(C=CC3CCN(CC3)c3cc(NS(=O)(=O)CCO)ccc3C(=O)N2)C1 (stereo not drawn) [Example 4, 2-Hydroxy-N-(1^1-methyl-7-oxo-8-aza-1(2,4)-pyrimidin-2(1,3),5(4,1)-dipiperidin-6 (1,2)-benzeneheterocyclooct-3-en-6^5-yl)ethane-1-sulfonamide]

Structure (SMILES) | IC50 (OVCAR3 cells; Homo sapiens, OVCAR-3, 72 h) [nM] | IC50 [1] [nM] | IC50 (HT29 cells; Homo sapiens, HT-29, 72 h) [nM] | IC50 (OVCAR3 cells) [nM] | IC50 (HT29 cells) [nM]
Cc1cc2nc(n1)N1CCCC(C=CCCC3CCN(CC3)c3cc(NS(=O)(=O)CCO)ccc3C(=O)N2)C1 (stereo not drawn) [Example 6, 2-Hydroxy-N-(2^1-methyl-4-oxo-3-aza-2(2,4)-pyrimidin-1(1,3),6(1,4)-dipiperidin-5 (1,2)-benzenecyclodec-9-en-5^4-yl)ethane-1-sulfonamide] | 52 | 89 | 64 | – | –
Cc1cc2nc(n1)N1CCC(F)(F)C(CC=CC3CCN(CC3)c3cc(NS(=O)(=O)CCO)ccc3C(=O)N2)C1 (stereo not drawn) [Example 19, (E)-N-(1^4,1^4-difluoro-2^6-methyl-4-oxo-3-aza-2(2,4)-pyrimidin-1(1,3),6(1,4)-dipiperidin-5(1,2)-benzeneheterocyclonon-7-en-5^4-yl)-2-hydroxyethane-1-sulfonamide] | 703 | 184 | 644 | – | –
